# US10251395B2, “Substituted furano-/thienocycloalkylamino-2-pyrimidine derivatives and use thereof for controlling undesired plant growth” (Bayer CropScience Aktiengesellschaft, priority 2015, dated 2019)
# Key:
# Matricaria inodora [1] = assay: Pre-emergence herbicidal effect; assay type: in vivo; details: scored visually after 3 weeks
# Outline: (§1)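 Herbicidal activity (%) is a visual rating made 3 weeks after treatment by comparison with untreated controls, where 0% equals control plants and 100% means the plants died. Application went onto the soil covering sown seeds before emergence.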
# Stellaria media [2] = assay: Pre-emergence herbicidal effect; assay type: in vivo; details: scored visually after 3 weeks
# Outline: as §1
# Echinochloa crus-galli [3] = assay: Pre-emergence herbicidal effect; assay type: in vivo; details: scored visually after 3 weeks
# Outline: as §1
# Polygonum convolvulus [4] = assay: Pre-emergence herbicidal effect; assay type: in vivo; details: scored visually after 3 weeks
# Outline: as §1
# Lolium multiflorum [5] = assay: Pre-emergence herbicidal effect; assay type: in vivo; details: Dosage 320 g/ha, scored visually after 3 weeks
# Outline: as §1
# Alopecurus myosuroides [6] = assay: Pre-emergence herbicidal effect; assay type: in vivo; details: Dosage 320 g/ha, scored visually after 3 weeks
# Outline: as §1
# Veronica persica [7] = assay: Pre-emergence herbicidal effect; assay type: in vivo; details: scored visually after 3 weeks
# Outline: as §1
# Setaria viridis = assay: Pre-emergence herbicidal effect; assay type: in vivo; details: scored visually after 3 weeks
# Outline: as §1
# Viola tricolor [8] = assay: Pre-emergence herbicidal effect; assay type: in vivo; details: scored visually after 3 weeks
# Outline: as §1
# Abutilon theophrasti [9] = assay: Pre-emergence herbicidal effect; assay type: in vivo; details: scored visually after 3 weeks
# Outline: as §1
# Amaranthus retroflexus [10] = assay: Pre-emergence herbicidal effect; assay type: in vivo; details: scored visually after 3 weeks
# Outline: as §1
# Stellaria media [11] = assay: Post-emergence herbicidal effect; assay type: in vivo; details: 320 g/ha, assessed visually after about 3 weeks vs untreated controls
# Outline: (§2)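 Visual % damage vs untreated plants, ~3 wk after spraying (100% = dead, 0% = as control). Post-emergence foliar spray at one-leaf stage; WP/EC in water, 600–800 L/ha + 0.2% wetting agent; sandy loam, greenhouse.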
# Echinochloa crus-galli [12] = assay: Post-emergence herbicidal effect; assay type: in vivo; details: assessed visually after about 3 weeks vs untreated controls
# Outline: as §2
# Alopecurus myosuroides [13] = assay: Post-emergence herbicidal effect; assay type: in vivo; details: 320 g/ha, assessed visually after about 3 weeks vs untreated controls
# Outline: as §2
# Veronica persica [14] = assay: Post-emergence herbicidal effect; assay type: in vivo; details: assessed visually after about 3 weeks vs untreated controls
# Outline: as §2
# Viola tricolor [15] = assay: Post-emergence herbicidal effect; assay type: in vivo; details: assessed visually after about 3 weeks vs untreated controls
# Outline: as §2
# Abutilon theophrasti [16] = assay: Post-emergence herbicidal effect; assay type: in vivo; details: 320 g/ha, assessed visually after about 3 weeks vs untreated controls
# Outline: as §2
# Amaranthus retroflexus [17] = assay: Post-emergence herbicidal effect; assay type: in vivo; details: assessed visually after about 3 weeks vs untreated controls
# Outline: as §2
# logP (HCOOH) = assay type: physicochemical; details: HCOOH
# From the text: Table 2 (physicochemical characterization of selected synthesis examples)
# Matricaria inodora [18] = assay: Post-emergence herbicidal effect; assay type: in vivo; details: 320 g/ha, assessed visually after about 3 weeks vs untreated controls
# Outline: as §2
# Polygonum convolvulus [19] = assay: Post-emergence herbicidal effect; assay type: in vivo; details: 320 g/ha, assessed visually after about 3 weeks vs untreated controls
# Outline: as §2
# Lolium multiflorum [20] = assay: Post-emergence herbicidal effect; assay type: in vivo; details: 320 g/ha, assessed visually after about 3 weeks vs untreated controls
# Outline: as §2
# Ipomoea purpurea = assay: Post-emergence herbicidal effect; assay type: in vivo; details: 320 g/ha, assessed visually after about 3 weeks vs untreated controls
# Outline: as §2
# Cyperus esculentus = assay: Pre-emergence herbicidal effect; assay type: in vivo; details: Dosage 320 g/ha, scored visually after 3 weeks
# Outline: as §1
SMILES,MATIN pre-emergence efficacy (herbicidal activity) (Matricaria inodora [1]; Dosage 80 g/ha) [%],MATIN pre-emergence efficacy (herbicidal activity) (Matricaria inodora [1]; Dosage 320 g/ha) [%],STEME pre-emergence efficacy (herbicidal activity) (Stellaria media [2]; Dosage 80 g/ha) [%],STEME pre-emergence efficacy (herbicidal activity) (Stellaria media [2]; Dosage 320 g/ha) [%],ECHCG pre-emergence efficacy (herbicidal activity) (Echinochloa crus-galli [3]; Dosage 320 g/ha) [%],POLCO pre-emergence efficacy (herbicidal activity) (Polygonum convolvulus [4]; Dosage 320 g/ha) [%],VERPE pre-emergence efficacy (herbicidal activity) (Veronica persica [7]; Dosage 80 g/ha) [%],VERPE pre-emergence efficacy (herbicidal activity) (Veronica persica [7]; Dosage 320 g/ha) [%],SETVI pre-emergence efficacy (herbicidal activity) (Setaria viridis; Dosage 320 g/ha) [%],VIOTR pre-emergence efficacy (herbicidal activity) (Viola tricolor [8]; Dosage 80 g/ha) [%],VIOTR pre-emergence efficacy (herbicidal activity) (Viola tricolor [8]; Dosage 320 g/ha) [%],ABUTH pre-emergence efficacy (herbicidal activity) (Abutilon theophrasti [9]; Dosage 320 g/ha) [%],AMARE pre-emergence efficacy (herbicidal activity) (Amaranthus retroflexus [10]; Dosage 320 g/ha) [%],post-emergence efficacy STEME (Stellaria media [11]) [%],post-emergence efficacy ALOMY (Alopecurus myosuroides [13]) [%],post-emergence efficacy VERPE (Veronica persica [14]; 320 g/ha) [%],post-emergence efficacy VIOTR (Viola tricolor [15]; 80 g/ha) [%],post-emergence efficacy VIOTR (Viola tricolor [15]; 320 g/ha) [%],post-emergence efficacy ABUTH (Abutilon theophrasti [16]) [%],post-emergence efficacy AMARE (Amaranthus retroflexus [17]; 320 g/ha) [%],further results
CS(=O)(=O)c1cnc(NC2CCCc3ccsc32)nc1N (racemic) [compound 69],100,100,100,100,100,100,100,100,100,100,100,100,100,90,80,80,80,100,80,90,"LOLMU pre-emergence efficacy (herbicidal activity) (Lolium multiflorum [5]): 100%; ALOMY pre-emergence efficacy (herbicidal activity) (Alopecurus myosuroides [6]): 80%; AMARE pre-emergence efficacy (herbicidal activity) (Amaranthus retroflexus [10]; Dosage 80 g/ha): 100%; post-emergence efficacy ECHCG (Echinochloa crus-galli [12]; 320 g/ha): 80%; post-emergence efficacy AMARE (Amaranthus retroflexus [17]; 80 g/ha): 20%; logP (HCOOH) (logP (HCOOH)): solid; m.p.: 129.9° C.; logP (HCOOH): 1.86; 1H NMR (CDCl3, 400 MHZ, δ in ppm): ):"
C/C(=N\OC(C)C)c1cnc(NC2CCCc3sc(C)cc32)nc1N (racemic) [compound 288],100,100,100,100,100,100,100,100,100,70,100,70,100,80,70,100,70,90,90,90,POLCO pre-emergence efficacy (herbicidal activity) (Polygonum convolvulus [4]; Dosage 80 g/ha): 80%; LOLMU pre-emergence efficacy (herbicidal activity) (Lolium multiflorum [5]): 100%; ALOMY pre-emergence efficacy (herbicidal activity) (Alopecurus myosuroides [6]): 80%; post-emergence efficacy MATIN (Matricaria inodora [18]): 90%; post-emergence efficacy POLCO (Polygonum convolvulus [19]): 70%; post-emergence efficacy LOLMU (Lolium multiflorum [20]): 60%; post-emergence efficacy PHBPU (Ipomoea purpurea): 70%
CS(=O)(=O)c1cnc(NC2CCCc3occc32)nc1N (racemic) [compound 13],–,100,–,–,–,–,–,90,–,–,100,–,100,80,–,90,–,100,–,–,CYPES pre-emergence efficacy (herbicidal activity) (Cyperus esculentus): 100%
Cc1cc2c(s1)CCCC2Nc1ncc2c(n1)CCCC2=O (racemic) [compound 9],100,100,100,100,100,100,100,100,100,90,100,100,100,90,80,90,80,90,80,90,ECHCG pre-emergence efficacy (herbicidal activity) (Echinochloa crus-galli [3]; Dosage 80 g/ha): 100%; POLCO pre-emergence efficacy (herbicidal activity) (Polygonum convolvulus [4]; Dosage 80 g/ha): 100%; SETVI pre-emergence efficacy (herbicidal activity) (Setaria viridis; Dosage 80 g/ha): 80%; ABUTH pre-emergence efficacy (herbicidal activity) (Abutilon theophrasti [9]; Dosage 80 g/ha): 100%; AMARE pre-emergence efficacy (herbicidal activity) (Amaranthus retroflexus [10]; Dosage 80 g/ha): 100%; post-emergence efficacy MATIN (Matricaria inodora [18]): 80%; post-emergence efficacy ECHCG (Echinochloa crus-galli [12]; 80 g/ha): 80%; post-emergence efficacy ECHCG (Echinochloa crus-galli [12]; 320 g/ha): 100%; post-emergence efficacy LOLMU (Lolium multiflorum [20]): 80%; post-emergence efficacy VERPE (Veronica persica [14]; 80 g/ha): 80%; post-emergence efficacy AMARE (Amaranthus retroflexus [17]; 80 g/ha): 80%
